17 compounds from patent US8420626B2, “Arene connected polyamine macrocyclic derivatives, preparation methods and pharmaceutical uses thereof” (Beijing Molecule Science and Technology Co., Ltd., priority 2007, dated 2013) can be followed below.

Counter-ions that a name gives are not always drawn. Like-named read-outs stand apart in the source and are kept apart here.

Format in all cases: cell-based
Data set [1] deals with p24 antigens of HIV-1. Kind of data set: Anti-HIV activity: inhibition of p24 antigen (ELISA). Here is the method: (§1) Per well of polystyrene plate (Immulon IB, Dynex Technology, Chantilly, Va.) was applied with HIV IG (a buffer of 0.085 M sodium carbonate and sodium bicarbonate, pH=9.6), stood at 4° C. over night, washed with PBS-T buffer (0.01 M PBS contains 0.05% Tween-20). The reaction was […] with PBS containing 1% skimmed milk (Bio-Rad Inc., Hercules, Calif.). A virus dissolved product was added to the wells, incubated at 37° C. for 1 hour, and washed. To the washed wells were added anti-P24 mAb (183-12H-5C), biotin labeled antimouse IgG1 (Santa Cruz Biotech., Santa Cruz, Calif.), SA-HRP and TMB successively. The reaction was terminated with 1N H2SO4. The absorption was detected at 450 nm by means of ELISA detector (Ultra 384, Tecan). Recombination protein p24 (US Biological, Swampscott, Mass.) was considered when the response curve of standard dosage was established. The inhibition activity IC50 (half inhibition concentration) values of p24 protein and (cell pathological effect) CPE were calculated by Calcusyn software provided by Sloan-Kettering Cancer Center (New York).
(§2) The inhibition activity (IC50) of pathological effect (CPE) and cytotoxicity (CC50) of p24 antigens and cells of HIV-1 of the compounds of part of examples were shown as follows: […]
On the technique in general: ELISA stands for enzyme-linked immunosorbent assay.

Data set [2] has as its system HIV-1. Kind of data set: Anti-HIV activity: inhibition of cell pathological effect (CPE). The settings on record: Human immunodeficiency virus 1; inhibition of cell pathological effect of HIV-1. Here is the method: as §1, §2
The nature of data set [3]: Cytotoxicity (XTT assay). The settings on record: half toxic concentration, incubation 4 days at 37° C. Here is the method: To 100 μl solution per compound on 96 wells cultivation plate at a certain concentration was added the same volume of cells (5×10^5/ml). Incubation was performed at 37° C. for 4 days. To the resultant were added 50 μl XTT solution (1 mg/ml) and 0.02 nM PMS. After the incubation was performed for 4 hours, the absorption was detected at 450 nm by means of ELISA detector. The CC50 (half toxic concentration) value was calculated by Calcusyn software provided by Sloan-Kettering Cancer Center (New York).
as §2
Background: Formazan colour is commonly taken as a measure of viable cells.

Where [4] appears, read: Human immunodeficiency virus 1, inhibition of HIV-1 p24 antigen, ELISA at 450 nm, read-out: IC50 (μM) p24.

As to `c1ccc(C(c2cccc(CN3CCCNCCNCCCNCC3)c2)c2cccc(CN3CCCNCCNCCCNCC3)c2)cc1` [Example 1, 3,3′-bis[(1,4,8,11-tetraazacyclotetradecan-1-yl)-methyl]-1,1′,1″-triphenylmethane octahydrobromide dihydrate], the IC50 in data set [1] (setting [4]) is 0.13 ± 0.02 µM; in data set [2] it was 0.41 ± 0.11 µM. Further, the CC50 at 4 days in data set [3] amounted to 322000 ± 7130 nM.

With `Cc1ccc(C(c2cccc(CN3CCCNCCNCCCNCC3)c2)c2cccc(CN3CCCNCCNCCCNCC3)c2)cc1` [Example 2, 3,3′-bis[(1,4,8,11-tetraazacyclotetradecan-1-yl)-methyl]-4″-methyl-1,1′,1″-triphenylmethane octahydrobromide dihydrate], the concentration for half-maximal inhibition (IC50) came to 0.17 ± 0.08 µM in data set [1] (setting [4]) and 0.48 ± 0.31 µM in data set [2]. In data set [3], this compound gave a CC50 at 4 days of 285000 ± 18800 nM.

`Brc1ccc(C(c2cccc(CN3CCCNCCNCCCNCC3)c2)c2cccc(CN3CCCNCCNCCCNCC3)c2)cc1` [Example 3, 3,3′-bis[(1,4,8,11-tetraazacyclotetradecan-1-yl)-methyl]-4″-bromo-1,1′,1″-triphenylmethane octahydrobromide dihydrate]: the IC50 came out at 0.13 ± 0.01 µM in data set [1] (setting [4]) and 0.08 ± 0.04 µM in data set [2]. The cytotoxic concentration (CC50) at 4 days in data set [3] was 161000 ± 4230 nM.

Turning to `Fc1ccc(C(c2cccc(CN3CCCNCCNCCCNCC3)c2)c2cccc(CN3CCCNCCNCCCNCC3)c2)cc1` [Example 4, 3,3′-bis[(1,4,8,11-tetraazacyclotetradecan-1-yl)-methyl]-4″-fluoro-1,1′,1″-triphenylmethane octahydrobromide dihydrate], the 50% inhibitory concentration (IC50) in data set [1] (setting [4]) turned out to be 0.32 ± 0.02 µM; in data set [2] it was 0.42 ± 0.06 µM. Further, the CC50 at 4 days in data set [3] is 367000 ± 54000 nM.

As to `Clc1cccc(C(c2cccc(CN3CCCNCCNCCCNCC3)c2)c2cccc(CN3CCCNCCNCCCNCC3)c2)c1` [Example 5, 3,3′-bis[(1,4,8,11-tetraazacyclotetradecan-1-yl)-methyl]-3″-chloro-1,1′,1″-triphenylmethane octahydrobromide dihydrate], the IC50 in data set [1] (setting [4]) was found to be 0.35 ± 0.04 µM; in data set [2], 0.23 ± 0.01 µM. This compound also came in with a half-maximal cytotoxic concentration (CC50) at 4 days in data set [3] of 162000 ± 2690 nM.

With `c1ccc(C(c2cccc(CN3CCCNCCNCCCNCC3)c2)c2cccc(CN3CCCNCCNCCCNCC3)c2)nc1` [Example 6, 2-{[3,3′-bis[(1,4,8,11-tetraazacyclotetradecan-1-yl)-methyl]-1,1′yl]-diphenyl}methylenepyridyl octahydrobromide dihydrate], the figures for the concentration for half-maximal inhibition (IC50) in data set [1] (setting [4]) and in data set [2] were 0.16 ± 0.04 µM and 0.55 ± 0.16 µM, respectively. This compound showed a cytotoxic concentration (CC50) at 4 days in data set [3] of 377000 ± 34400 nM.

As for `c1ccc(C(c2ccc(CN3CCCNCCNCCCNCC3)cc2)c2ccc(CN3CCCNCCNCCCNCC3)cc2)cc1` [Example 7, 4,4′-bis[(1,4,8,11-tetraazacyclotetradecan-1-yl)-methyl]-1,1′,1″-triphenylmethane octahydrobromide dihydrate], the IC50 in data set [1] (setting [4]) amounted to 0.98 ± 0.12 µM; in data set [2], 2.42 ± 0.4 µM. The compound further showed a CC50 at 4 days in data set [3] of 101000 ± 1050 nM.

For `Cc1ccc(C(c2ccc(CN3CCCNCCNCCCNCC3)cc2)c2ccc(CN3CCCNCCNCCCNCC3)cc2)cc1` [Example 8, 4,4′-bis[(1,4,8,11-tetraazacyclotetradecan-1-yl)-methyl]-4″-methyl-1,1′,1″-triphenylmethane octahydrobromide dihydrate], the concentration for half-maximal inhibition (IC50) in data set [1] (setting [4]) is 0.97 ± 0.14 µM; in data set [2], 2.05 ± 0.58 µM. Moreover, in data set [3], the cytotoxic concentration (CC50) at 4 days amounted to 130000 ± 12400 nM.

As to `Brc1ccc(C(c2ccc(CN3CCCNCCNCCCNCC3)cc2)c2ccc(CN3CCCNCCNCCCNCC3)cc2)cc1` [Example 9, 4,4′-bis[(1,4,8,11-tetraazacyclotetradecan-1-yl)-methyl]-4″-bromo-1,1′,1″-triphenylmethane octahydrobromide dihydrate], the IC50 in data set [1] (setting [4]) was determined as 0.43 ± 0.07 µM; in data set [2] it was 1.75 ± 0.37 µM. Also, the CC50 at 4 days in data set [3] stood at 65800 ± 7960 nM.

Consider `Fc1ccc(C(c2ccc(CN3CCCNCCNCCCNCC3)cc2)c2ccc(CN3CCCNCCNCCCNCC3)cc2)cc1` [Example 10, 4,4′-bis[(1,4,8,11-tetraazacyclotetradecan-1-yl)-methyl]-4″-fluoro-1,1′,1″-triphenylmethane octahydrobromide dihydrate], for which the IC50 came to 0.43 ± 0.11 µM in data set [1] (setting [4]) and 1.22 ± 0.2 µM in data set [2]. In data set [3], this compound displayed a CC50 at 4 days of 91300 ± 8750 nM.

With `Clc1cccc(C(c2ccc(CN3CCCNCCNCCCNCC3)cc2)c2ccc(CN3CCCNCCNCCCNCC3)cc2)c1` [Example 11, 4,4′-bis[(1,4,8,11-tetraazacyclotetradecan-1-yl)-methyl]-3″-chloro-1,1′,1″-triphenylmethane octahydrobromide dihydrate], the half-inhibitory concentration (IC50) in data set [1] (setting [4]) was determined as 0.65 ± 0.2 µM; in data set [2], 1.48 ± 0.52 µM. In data set [3], this compound gave a CC50 at 4 days of 67800 ± 13300 nM.

In the case of `c1ccc(C(c2cccc(CN3CCCNCc4cccc(c4)CNCCC3)c2)c2cccc(CN3CCCNCc4cccc(c4)CNCCC3)c2)cc1` [Example 13, 3,3′-bis{[3,7,11-triaza-dicyclo[11.3.1]heptadecan-1(16),13(17),14-trien-7-yl]-methyl}-1,1′,1″-triphenylmethane hexahydrobromide dihydrate], the concentration for half-maximal inhibition (IC50) in data set [1] (Human immunodeficiency virus 1, read-out: IC50 (μM) p24) is 0.64 ± 0.08 µM; in data set [2], 1.56 ± 0.48 µM. The 50% cytotoxic concentration (CC50) at 4 days in data set [3] stood at 12400 ± 3690 nM.

Turning to `c1ccc(C(c2cccc(CN3CCCNCc4cccc(n4)CNCCC3)c2)c2cccc(CN3CCCNCc4cccc(n4)CNCCC3)c2)cc1` [Example 19, 3,3′-bis{[3,7,11,17-tetraaza-dicyclo[11.3.1]heptadecan-1(16),13(17),14-trien-7-yl]-methyl}-1,1′,1″-triphenyl methane hexahydrobromide dihydrate], the IC50 worked out at 0.44 ± 0.04 µM in data set [1] (setting [4]) and 0.79 ± 0.02 µM in data set [2]. Also, the CC50 at 4 days in data set [3] worked out at 14500 ± 1290 nM.

Turning to `Clc1cccc(C(c2cccc(CN3CCCNCc4cccc(n4)CNCCC3)c2)c2cccc(CN3CCCNCc4cccc(n4)CNCCC3)c2)c1` [Example 23, 3,3′-bis{[3,7,11,17-tetraaza-dicyclo[11.3.1]heptadecan-1(16),13(17),14-trien-7-yl]-methyl}-3″-chloro-1,1′,1″-triphenylmethane hexahydrobromide dihydrate], the figures for the 50% inhibitory concentration (IC50) in data set [1] (setting [4]) and in data set [2] were 0.32 ± 0.05 µM and 1.18 ± 0.48 µM, respectively. This compound also registered a 50% cytotoxic concentration (CC50) at 4 days in data set [3] of 15300 ± 560 nM.

Regarding `c1ccc(C(c2ccc(CN3CCCNCc4cccc(c4)CNCCC3)cc2)c2ccc(CN3CCCNCc4cccc(c4)CNCCC3)cc2)cc1` [Example 25, 4,4′-bis{[3,7,11-triaza-dicyclo[11.3.1]heptadecan-1(16),13(17),14-trien-7-yl]-methyl}-1,1′1″-triphenylmethane hexahydrobromide dihydrate], the figures for the IC50 in data set [1] (setting [4]) and in data set [2] were 0.55 ± 0.09 µM and 1.87 ± 0.28 µM, respectively. In addition, the CC50 at 4 days in data set [3] is 32500 ± 3270 nM.

Consider `Cc1ccc(C(c2ccc(CN3CCCNCc4cccc(n4)CNCCC3)cc2)c2ccc(CN3CCCNCc4cccc(n4)CNCCC3)cc2)cc1` [Example 31, 4,4′-bis{[3,7,11,17-tetraaza-dicyclo[11.3.1]heptadecan-1(16),13(17),14-trien-7-yl]-methyl}-4″-methyl-1,1′,1″-triphenylmethane hexahydrobromide dihydrate], for which the IC50 in data set [1] (setting [4]) was determined as 0.78 ± 0.18 µM; in data set [2], 1.07 ± 0.79 µM. The CC50 at 4 days in data set [3] came out at 39290 ± 80 nM.

For the compound `Brc1ccc(C(c2ccc(CN3CCCNCc4cccc(n4)CNCCC3)cc2)c2ccc(CN3CCCNCc4cccc(n4)CNCCC3)cc2)cc1` [Example 32, 4,4′-bis{[3,7,11,17-tetraaza-dicyclo[11.3.1]heptadecan-1(16),13(17),14-trien-7-yl]-methyl}-4″-bromo-1,1′,1″-triphenylmethane hexahydrobromide dihydrate], the figures for the IC50 in data set [1] (setting [4]) and in data set [2] were 0.15 ± 0.02 µM and 0.8 ± 0.23 µM, respectively. For the same compound, the CC50 at 4 days in data set [3] came to 12900 ± 310 nM.

What is called IC50 is the midpoint of a concentration-inhibition curve. The CC50 is the concentration giving 50% cytotoxicity. A lower CC50 goes with greater toxicity to the cells.
